Experimental data taken from patent publication US9833497B2, “Human originated EGF domain proteins and use of the same” (CHENGDU SOURCEBIO LIMITED-LIABILITY COMPANY, priority 2013, dated 2017).

What was measured:
Type in all cases: cell-based
[1] = test system: Moraxella catarrhalis; assay: MIC against Gram-negative bacteria: Moraxella catarrhalis; conditions: M. catarrhalis; 10 h cultivation at 37° C.; 5×10^5 CFU/mL
Method in brief: (§1)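 LB broth cultures at McFarland 0.5, spun down, resuspended, diluted to 5×10^5 CFU/mL final. Two-fold serial dilutions of purified human EGF domain proteins, triplicate. 37° C, 175 rpm shaking. Endpoint: no visible growth.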

[2] = test system: Klebsiella pneumonia; assay: MIC against Gram-negative bacteria: Klebsiella pneumonia; conditions: K. pneumonia; 10 h cultivation at 37° C.; 5×10^5 CFU/mL
Method in brief: as §1

[3] = test system: Enterobacter cloacae; assay: MIC against Gram-negative bacteria: Enterobacter cloacae; conditions: E. cloacae; 10 h cultivation at 37° C.; 5×10^5 CFU/mL
Method in brief: as §1

[4] = test system: Pseudomonas aeruginosa; assay: MIC against Gram-negative bacteria: Pseudomonas aeruginosa; conditions: P. aeruginosa; 10 h cultivation at 37° C.; 5×10^5 CFU/mL
Method in brief: as §1

[5] = test system: Aeromonas hydrophila; assay: MIC against Gram-negative bacteria: Aeromonas hydrophila; conditions: A. hydrophila; 10 h cultivation at 37° C.; 5×10^5 CFU/mL
Method in brief: as §1

[6] = test system: E. coli BL21; assay: MIC against Gram-negative bacteria: E. coli BL21; conditions: E. coli BL21; 10 h cultivation at 37° C.; 5×10^5 CFU/mL
Method in brief: as §1

[7] = test system: Proteus mirabilis; assay: MIC against Gram-negative bacteria: Proteus mirabilis; conditions: P. mirabilis; 10 h cultivation at 37° C.; 5×10^5 CFU/mL
Method in brief: as §1

[8] = test system: Citrobacter diversus; assay: MIC against Gram-negative bacteria: Citrobacter diversus; conditions: C. diversus; 10 h cultivation at 37° C.; 5×10^5 CFU/mL
Method in brief: as §1

[9] = test system: E. coli DH5α; assay: Antibacterial activity: MIC and growth curve against E. coli DH5α in 96-well plate; conditions: minimal inhibitory concentration against E. coli DH5α; 96-well plate, 5×10^5 CFU/mL, 37° C., judged after 8 h
Method in brief: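 MIC taken as lowest protein level with no bacterial growth, tracked by A600 every 30 min during 37 °C, 175 rpm culture. Two-fold protein series 50-12.5 μg/mL final, triplicate wells, against 5×10^5 CFU/mL of LB-washed mid-log cells.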

[10] = test system: Proteus vulgaris; assay: MIC against Gram-negative bacteria: Proteus vulgaris; conditions: P. vulgaris; 10 h cultivation at 37° C.; 5×10^5 CFU/mL
Method in brief: as §1

[11] = test system: Serratia marcescens; assay: MIC against Gram-negative bacteria: Serratia marcescens; conditions: S. marcescens; 10 h cultivation at 37° C.; 5×10^5 CFU/mL
Method in brief: as §1

Row | Substance | MIC [9] [µg/mL] | MIC [1] [µg/mL] | MIC [2] [µg/mL] | MIC [3] [µg/mL] | MIC [4] [µg/mL] | MIC [5] [µg/mL] | MIC [6] [µg/mL] | MIC [7] [µg/mL] | MIC [8] [µg/mL] | MIC [10] [µg/mL] | MIC [11] [µg/mL] | also measured
1 | PRT265 (CQDGHGGCSEHANCSQVGTMVTCTCLPDYEGDGWSC; listed as Homo sapiens) | 25 | – | – | – | – | – | – | – | – | – | – | MIC (μg/mL) M. catarrhalis [1]: 25 µg/mL; MIC (μg/mL) K. pneumonia [2]: 12.5 µg/mL; MIC (μg/mL) E. cloacae [3]: 25 µg/mL; MIC (μg/mL) P. aeruginosa [4]: 25 µg/mL; MIC (μg/mL) A. hydrophila [5]: 12.5 µg/mL; MIC (μg/mL) E. coli BL21 [6]: 12.5 µg/mL; MIC (μg/mL) P. mirabilis [7]: 25 µg/mL; MIC (μg/mL) C. diversus [8]: 25 µg/mL; MIC (μg/mL) P. vulgaris [10]: 50 µg/mL; MIC (μg/mL) S. marcescens [11]: 25 µg/mL
2 | PRT268 (SFKCRCDSGFALDSEERNCTDIDE; listed as Homo sapiens) | 12.5 | – | – | – | – | – | – | – | – | – | – | MIC (μg/mL) M. catarrhalis [1]: 25 µg/mL; MIC (μg/mL) K. pneumonia [2]: 25 µg/mL; MIC (μg/mL) E. cloacae [3]: 50 µg/mL; MIC (μg/mL) P. aeruginosa [4]: 12.5 µg/mL; MIC (μg/mL) A. hydrophila [5]: 25 µg/mL; MIC (μg/mL) E. coli BL21 [6]: 25 µg/mL; MIC (μg/mL) P. mirabilis [7]: 50 µg/mL; MIC (μg/mL) C. diversus [8]: 12.5 µg/mL; MIC (μg/mL) P. vulgaris [10]: 12.5 µg/mL; MIC (μg/mL) S. marcescens [11]: 12.5 µg/mL
3 | PRT302 (DIDECVEEPEICALGTCSNTEGSFKCLCPEGFSLSSSGRRCQ; listed as Homo sapiens) | 12.5 | 12.5 | 25 | 12.5 | 12.5 | 12.5 | 25 | 12.5 | 12.5 | 50 | 12.5 | –
4 | PRT312 (DNNECTSDINLCGSKGICQNTPGSFTCECQRGFSLDQTGSSCE; listed as Homo sapiens) | 50 | 25 | 25 | 12.5 | 50 | 25 | 12.5 | 12.5 | 50 | 25 | 50 | –
5 | PRT317 (VTDYCQLVRYLCQNGRCIPTPGSCRCECNKGFQLDLRGECI; listed as Homo sapiens) | 12.5 | 25 | 50 | 12.5 | 12.5 | 25 | 50 | 12.5 | 12.5 | 12.5 | 12.5 | –
6 | PRT318 (DVDECEKNPCAGGECINNQGSYTCQCRAGYQSTLTRTECR; listed as Homo sapiens) | 12.5 | 50 | 50 | 12.5 | 12.5 | 50 | 12.5 | 12.5 | 12.5 | 25 | 50 | –
7 | PRT369 (DVDECLSSPCVSGVCRNLAGSYTCKCGPGSRLDPSGTFCL; listed as Homo sapiens) | 50 | 50 | 50 | 25 | 12.5 | 12.5 | 25 | 12.5 | 25 | 50 | 12.5 | –
8 | PRT398 (DDNECHAQPDLCVNGRCVNTAGSFRCDCDEGFQPSPTLTECH; listed as Homo sapiens) | 50 | 12.5 | 12.5 | 50 | 50 | 12.5 | 12.5 | 12.5 | 50 | 12.5 | 100 | –
9 | PRT399 (DVDECRMLAHLCAHGECINSLGSFRCHCQAGYTPDATATTCL; listed as Homo sapiens) | 12.5 | 50 | 50 | 12.5 | 12.5 | 50 | 50 | 12.5 | 12.5 | 50 | 12.5 | –
10 | PRT403 (DNDECSAQPGPCGAHGHCHNTPGSFRCECHQGFTLVSSGHGCE; listed as Homo sapiens) | 12.5 | 25 | 25 | 12.5 | 50 | 25 | 25 | 12.5 | 50 | 25 | 50 | –
11 | PRT412 (LNDRCRGGGPCKQQCRDTGDEVVCSCFVGYQLLSDGVSCE; listed as Homo sapiens) | 12.5 | 25 | 25 | 50 | 12.5 | 25 | 50 | 12.5 | 12.5 | 25 | 12.5 | –
12 | PRT413 (DVNECITGSHSCRLGESCINTVGSFRCQRDSSCGTGYELTEDNSCK; listed as Homo sapiens) | 12.5 | 50 | 50 | 12.5 | 12.5 | 50 | 12.5 | 12.5 | 12.5 | 12.5 | 12.5 | –
13 | PRT414 (DIDECESGIHNCLPDFICQNTLGSFRCRPKLQCKSGFIQDALGNCI; listed as Homo sapiens) | 12.5 | 25 | 12.5 | 12.5 | 12.5 | 25 | 12.5 | 12.5 | 12.5 | 25 | 50 | –
14 | PRT415 (DINECLSISAPCPIGHTCINTEGSYTCQKNVPNCGRGYHLNEEGTRCV; listed as Homo sapiens) | 25 | 50 | 50 | 25 | 25 | 12.5 | 12.5 | 25 | 25 | 12.5 | 25 | –
15 | PRT416 (DVDECAPPAEPCGKGHRCVNSPGSFRCECKTGYYFDGISRMCV; listed as Homo sapiens) | 50 | 25 | 25 | 50 | 12.5 | 25 | 25 | 50 | 12.5 | 25 | 12.5 | –
16 | PRT417 (DVNECQRYPGRLCGHKCENTLGSYLCSCSVGFRLSVDGRSCE; listed as Homo sapiens) | 25 | 12.5 | 12.5 | 25 | 25 | 12.5 | 50 | 12.5 | 25 | 12.5 | 12.5 | –
17 | PRT418 (DINECSSSPCSQECANVYGSYQCYCRRGYQLSDVDGVTCE; listed as Homo sapiens) | 12.5 | 25 | 50 | 12.5 | 12.5 | 25 | 12.5 | 12.5 | 50 | 25 | 50 | –
18 | PRT419 (DIDECALPTGGHICSYRCINIPGSFQCSCPSSGYRLAPNGRNCQ; listed as Homo sapiens) | 25 | 50 | 50 | 25 | 25 | 12.5 | 12.5 | 25 | 25 | 12.5 | 25 | –
